{"source": "ChEMBL document CHEMBL2176951", "about": "“Molecular mechanisms of acquired proteasome inhibitor resistance” (J Med Chem, 2012)", "key": {"Homo sapiens": {"organism": "Homo sapiens", "test": "P-gp-mediated drug resistance in human CEM/VLB cells relative to control", "format": "cell-based"}, "SW1573": {"test_system": "SW1573", "test": "Effect on 20S proteasome subunit beta5 expression in human SW1573 cells at 150 nM relative to control", "format": "functional", "conditions": "pooled result: one value given for 7 cell lines, strains, targets or settings"}, "HT-29 [1]": {"test_system": "HT-29", "test": "Effect on 20S proteasome subunit beta5 expression in human HT-29 cells at 200 nM relative to control", "format": "functional"}, "HT-29 [2]": {"test_system": "HT-29", "test": "Effect on 20S proteasome subunit beta5 expression in human HT-29 cells at 100 nM relative to control", "format": "functional"}, "THP-1 [3]": {"test_system": "THP-1", "test": "Effect on 20S proteasome subunit beta5 expression in human THP1 cells at 200 nM relative to control", "format": "functional"}, "THP-1 [4]": {"test_system": "THP-1", "test": "Effect on 20S proteasome subunit beta5 expression in human THP1 cells at 100 nM relative to control", "format": "functional"}, "THP-1 [5]": {"test_system": "THP-1", "test": "Effect on 20S proteasome subunit beta5 expression in human THP1 cells at 50 nM relative to control", "format": "functional"}, "THP-1 [6]": {"test_system": "THP-1", "test": "Effect on 20S proteasome subunit beta5 expression in human THP1 cells at 30 nM relative to control", "format": "functional"}, "RPMI-8226 [7]": {"test_system": "RPMI-8226", "test": "Effect on PSMB5 mRNA expression in human RPMI8226 cells at 7 nM relative to control", "format": "functional"}, "RPMI-8226 [8]": {"test_system": "RPMI-8226", "test": "Effect on PSMB5 mRNA expression in human RPMI8226 cells at 100 nM relative to control", "format": "functional"}, "[9]": {"test": "Effect on PSMB5 mRNA expression in human Jurkat-B cells expressing PSMB5 C323T mutant at 1000 nM relative to control", "format": "functional"}, "[10]": {"test": "Effect on PSMB5 mRNA expression in human Jurkat-B cells expressing PSMB5 G322A mutant at 1000 nM relative to control", "format": "functional"}, "THP-1 [11]": {"test_system": "THP-1", "test": "Effect on PSMB5 mRNA expression in human THP1 cells at 200 nM relative to control", "format": "functional"}, "THP-1 [12]": {"test_system": "THP-1", "test": "Effect on PSMB5 mRNA expression in human THP1 cells at 100 nM relative to control", "format": "functional"}, "THP-1 [13]": {"test_system": "THP-1", "test": "Effect on PSMB5 mRNA expression in human THP1 cells at 50 nM relative to control", "format": "functional"}, "THP-1 [14]": {"test_system": "THP-1", "test": "Effect on PSMB5 mRNA expression in human THP1 cells at 30 nM relative to control", "format": "functional"}, "[15]": {"molecular_target": "Proteasome Macropain subunit (Homo sapiens) (UniProt P49721)", "sequence (P49721 whole entry)": "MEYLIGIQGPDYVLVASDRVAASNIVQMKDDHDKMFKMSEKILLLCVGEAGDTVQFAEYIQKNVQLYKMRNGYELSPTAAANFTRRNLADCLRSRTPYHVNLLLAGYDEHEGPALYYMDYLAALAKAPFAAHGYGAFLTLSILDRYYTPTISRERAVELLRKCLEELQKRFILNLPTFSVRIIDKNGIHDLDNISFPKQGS", "test": "Ratio of Kinact to Ki for human 20S proteasome subunit beta2"}, "[16]": {"molecular_target": "T1, Proteasome component C5 (Homo sapiens) (UniProt P20618)", "T1 sequence (whole entry)": "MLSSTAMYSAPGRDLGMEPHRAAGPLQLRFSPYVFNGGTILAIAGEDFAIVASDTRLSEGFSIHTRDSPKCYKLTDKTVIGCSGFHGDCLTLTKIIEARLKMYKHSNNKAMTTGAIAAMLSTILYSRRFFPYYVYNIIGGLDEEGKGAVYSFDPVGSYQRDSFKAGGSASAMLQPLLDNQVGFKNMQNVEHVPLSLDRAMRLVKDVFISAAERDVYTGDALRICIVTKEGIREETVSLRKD", "test": "Ratio of Kinact to Ki for human 20S proteasome subunit beta1"}, "[17]": {"molecular_target": "T2, Proteasome Macropain subunit MB1 (Homo sapiens) (UniProt P28074)", "T2 sequence (whole entry)": "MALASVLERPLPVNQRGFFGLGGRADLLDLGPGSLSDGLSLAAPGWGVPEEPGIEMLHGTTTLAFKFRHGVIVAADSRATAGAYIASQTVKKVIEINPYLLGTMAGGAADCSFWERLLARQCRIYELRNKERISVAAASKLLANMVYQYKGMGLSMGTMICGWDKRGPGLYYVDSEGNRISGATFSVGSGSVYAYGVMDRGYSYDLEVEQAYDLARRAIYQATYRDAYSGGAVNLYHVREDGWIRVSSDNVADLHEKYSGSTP", "test": "Ratio of Kinact to Ki for human 20S proteasome subunit beta5"}, "RPMI-8226 [18]": {"test_system": "RPMI-8226", "test": "Resistance factor, ratio of IC50 for 100 nM bortezonib-resistant human RPMI8226 cells harboring proteosome subunit beta5 A49T mutant to IC50 for wild type human RPMI8226 cells", "format": "functional"}, "[19]": {"molecular_target": "T3, Proteasome Macropain subunit MB1 (Homo sapiens, UniProt P28074)", "T3 sequence (P28074 whole entry)": "T2 sequence (whole entry)", "test": "Reversible inhibition of human erythrocyte derived 20S proteasome subunit beta5 after 30 mins by fluorogenic assay"}}, "data": [{"molecule": "COC[C@H](NC(=O)c1cnc(C)s1)C(=O)N[C@@H](COC)C(=O)N[C@@H](Cc1ccccc1)C(=O)[C@@]1(C)CO1", "values": [{"measurement": "fold change (FC)", "setting": "Homo sapiens", "value": 23}]}, {"molecule": "CC(C)C[C@H](NC(=O)[C@H](Cc1ccccc1)NC(=O)c1cnccn1)B(O)O", "note": "[BORTEZOMIB]", "values": [{"measurement": "fold change (FC)", "setting": "SW1573", "value": 1.3}, {"measurement": "fold change (FC)", "setting": "HT-29 [1]", "value": 3}, {"measurement": "fold change (FC)", "setting": "HT-29 [2]", "value": 3}, {"measurement": "fold change (FC)", "setting": "THP-1 [3]", "value": 60}, {"measurement": "fold change (FC)", "setting": "THP-1 [4]", "value": 60}, {"measurement": "fold change (FC)", "setting": "THP-1 [5]", "value": 60}, {"measurement": "fold change (FC)", "setting": "THP-1 [6]", "value": 60}, {"measurement": "fold change (FC)", "setting": "RPMI-8226 [7]", "value": 5}, {"measurement": "fold change (FC)", "setting": "RPMI-8226 [8]", "value": 15}, {"measurement": "fold change (FC)", "setting": "[9]", "value": 0.9}, {"measurement": "fold change (FC)", "setting": "[10]", "value": 1.7}, {"measurement": "fold change (FC)", "setting": "THP-1 [11]", "value": 0.9}, {"measurement": "fold change (FC)", "setting": "THP-1 [12]", "value": 0.6}, {"measurement": "fold change (FC)", "setting": "THP-1 [13]", "value": 0.5}, {"measurement": "fold change (FC)", "setting": "THP-1 [14]", "value": 0.4}]}, {"molecule": "CC(C)C[C@H](NC(=O)[C@H](CCc1ccccc1)NC(=O)CN1CCOCC1)C(=O)N[C@@H](Cc1ccccc1)C(=O)N[C@@H](CC(C)C)C(=O)[C@@]1(C)CO1", "note": "[CARFILZOMIB]", "values": [{"measurement": "Ratio", "setting": "[15]", "value": "< 100", "unit": "M⁻¹ s⁻¹"}, {"measurement": "Ratio", "setting": "[16]", "value": "< 100", "unit": "M⁻¹ s⁻¹"}, {"measurement": "Ratio", "setting": "[17]", "value": 33000, "unit": "M⁻¹ s⁻¹"}, {"measurement": "fold change (FC)", "setting": "Homo sapiens", "value": 114}, {"measurement": "Ratio IC50", "setting": "RPMI-8226 [18]", "value": 9.7}]}, {"molecule": "CC(C)C[C@H](NC(=O)[C@@H](NC(=O)c1cccc(-c2ccccc2)n1)[C@@H](C)O)B(O)O", "note": "[DELANZOMIB]", "values": [{"measurement": "IC50", "setting": "[19]", "value": 3.5, "unit": "nM"}]}]}
